From ChEMBL document CHEMBL4699645 (2020) come the findings set out here.

Experiment [1] relates to Oocyte. In words: Antagonist activity at rat alpha3beta2 nAChR S108T mutant expressed in Xenopus laevis oocytes assessed as inhibition of Ach-induced response at 1 uM at -70 mV holding potential measured after 5 mins by voltage-clamp assay relative to control. The class given is cell-based.
In experiment [2] the target is T1, Neuronal acetylcholine receptor; alpha3/beta2 (Rattus norvegicus) (UniProt P04757+P12390). The experiment can be described thus: Antagonist activity at rat wild-type alpha3beta2 nAChR expressed in Xenopus laevis oocytes assessed as inhibition of Ach-induced response at 10 nM at -70 mV holding potential measured after 5 mins by voltage-clamp assay relative to control. The class given is cell-based. As to conditions: Oocyte.

Experiment [3] can be described thus: Antagonist activity at rat alpha3beta2 nAChR S168I mutant expressed in Xenopus laevis oocytes assessed as inhibition of Ach-induced response at -70 mV holding potential measured after 5 mins by voltage-clamp assay. The class given is cell-based. As to conditions: Oocyte.
Experiment [4] in a line: Antagonist activity at rat alpha3beta2 nAChR S108T mutant expressed in Xenopus laevis oocytes assessed as inhibition of Ach-induced response at -70 mV holding potential measured after 5 mins by voltage-clamp assay. The class given is cell-based. The conditions noted are these: Oocyte.
A short description of experiment [5]: Antagonist activity at rat alpha3beta2 nAChR D165P mutant expressed in Xenopus laevis oocytes assessed as inhibition of Ach-induced response at -70 mV holding potential measured after 5 mins by voltage-clamp assay. The class given is cell-based. As to conditions: Oocyte.
Experiment [6] concerns Oocyte. In words: Antagonist activity at rat alpha3beta2 nAChR F106V mutant expressed in Xenopus laevis oocytes assessed as inhibition of Ach-induced response at 1 uM at -70 mV holding potential measured after 5 mins by voltage-clamp assay relative to control. The class given is cell-based. As to conditions: filed as antagonist.
For experiment [7], the system named is Oocyte. The experiment can be described thus: Antagonist activity at rat alpha3beta2 nAChR S168I mutant expressed in Xenopus laevis oocytes assessed as inhibition of Ach-induced response at 10 nM at -70 mV holding potential measured after 5 mins by voltage-clamp assay relative to control. The conditions noted are these: filed as antagonist. The class given is cell-based.

The nature of experiment [8]: Antagonist activity at rat alpha3beta2 nAChR A110V mutant expressed in Xenopus laevis oocytes assessed as inhibition of Ach-induced response at -70 mV holding potential measured after 5 mins by voltage-clamp assay. The class given is cell-based. As to conditions: Oocyte.
The nature of experiment [9]: Antagonist activity at rat alpha3beta2 nAChR V166T mutant expressed in Xenopus laevis oocytes assessed as inhibition of Ach-induced response at -70 mV holding potential measured after 5 mins by voltage-clamp assay. The class given is cell-based. The conditions noted are these: Oocyte.
Experiment [10] in a line: Displacement of [125I]-alpha-bungarotoxin from Aplysia californica C-terminal His6-tagged N-terminal gp67 signal peptide-tagged acetylcholine receptor binding protein expressed in Hi5 insect cells preincubated for 3 hrs followed by [125I]-alpha-bungarotoxin measured after 5 mins by radioligand binding assay.
Experiment [11] in a line: Antagonist activity at rat alpha3beta2 nAChR L169M mutant expressed in Xenopus laevis oocytes assessed as inhibition of Ach-induced response at -70 mV holding potential measured after 5 mins by voltage-clamp assay. The class given is cell-based. The conditions noted are these: Oocyte.
Experiment [12] in a line: Antagonist activity at rat alpha3beta2 nAChR F106V mutant expressed in Xenopus laevis oocytes assessed as inhibition of Ach-induced response at -70 mV holding potential measured after 5 mins by voltage-clamp assay. The class given is cell-based. As to conditions: Oocyte.
Experiment [13] has as its target T1, Neuronal acetylcholine receptor; alpha3/beta2 (Rattus norvegicus). The experiment can be described thus: Antagonist activity at wild type rat alpha3beta2 nAChR expressed in Xenopus laevis oocytes assessed as inhibition of Ach-induced response at 1 uM at -70 mV holding potential measured after 5 mins by voltage-clamp assay relative to control. The class given is cell-based. As to conditions: Oocyte, filed as antagonist.

The nature of experiment [14]: Antagonist activity at rat alpha3beta2 nAChR Y114S mutant expressed in Xenopus laevis oocytes assessed as inhibition of Ach-induced response at -70 mV holding potential measured after 5 mins by voltage-clamp assay. The class given is cell-based. As to conditions: Oocyte.
Experiment [15] in a line: Antagonist activity at rat alpha3beta2 nAChR D115N mutant expressed in Xenopus laevis oocytes assessed as inhibition of Ach-induced response at -70 mV holding potential measured after 5 mins by voltage-clamp assay. The class given is cell-based. The conditions noted are these: Oocyte.
Experiment [16] concerns Oocyte. The experiment can be described thus: Antagonist activity at rat alpha3beta2 nAChR S113R mutant expressed in Xenopus laevis oocytes assessed as inhibition of Ach-induced response at 10 nM at -70 mV holding potential measured after 5 mins by voltage-clamp assay relative to control. The conditions noted are these: filed as antagonist. The class given is cell-based.

A short description of experiment [17]: Antagonist activity at rat alpha3beta2 nAChR S113R mutant expressed in Xenopus laevis oocytes assessed as inhibition of Ach-induced response at -70 mV holding potential measured after 5 mins by voltage-clamp assay. As to conditions: Oocyte. The class given is cell-based.
Experiment [18] has as its target Neuronal acetylcholine receptor; alpha3/beta2 (Rattus norvegicus, UniProt P04757+P12390). The experiment can be described thus: Antagonist activity at rat alpha3beta2 nAChR expressed in Xenopus laevis oocytes assessed as inhibition of Ach-induced response at -70 mV holding potential incubated for 5 mins by voltage-clamp assay. The class given is cell-based, Oocyte.

The target of experiment [19] is T1, Neuronal acetylcholine receptor; alpha3/beta2 (Rattus norvegicus). In words: Antagonist activity at rat alpha3beta2 nAChR expressed in Xenopus laevis oocytes assessed as inhibition of Ach-induced response by measuring recovery of ACh-induced response time at 10 nM with -70 mV holding potential measured after 5 mins voltage-clamp assay. The class given is cell-based. As to conditions: Oocyte.

Experiment [20] concerns Oocyte. The experiment can be described thus: Antagonist activity at rat alpha3beta2 nAChR S168I mutant expressed in Xenopus laevis oocytes assessed as inhibition of Ach-induced response by measuring recovery of ACh-induced response time at 10 nM with -70 mV holding potential measured after 5 mins voltage-clamp assay. The class given is cell-based.
A further experiment concerns Hi-5. In words: Displacement of [125I]-alpha-bungarotoxin from Aplysia californica C-terminal His6-tagged N-terminal gp67 signal peptide-tagged acetylcholine receptor binding protein expressed in Hi5 insect cells preincubated for 3 hrs followed by [125I]-alpha-bungarotoxin measured after 5 mins by radioligand binding assay relative to LvIA IC50. The conditions noted are these: time 185.0 min.

The target of experiment [21] is T1, Neuronal acetylcholine receptor; alpha3/beta2 (Rattus norvegicus). In words: Antagonist activity at rat alpha3beta2 nAChR expressed in Xenopus laevis oocytes assessed as inhibition of Ach-induced response at -70 mV holding potential incubated for 5 mins by voltage-clamp assay relative to LvIA IC50. The conditions noted are these: Oocyte. The class given is cell-based.

The target of experiment [22] is Neuronal acetylcholine receptor; alpha3/beta4 (Rattus norvegicus) (UniProt P04757+P12392). The experiment can be described thus: Antagonist activity at rat alpha3beta4 nAChR expressed in Xenopus laevis oocytes assessed as inhibition of Ach-induced response at -70 mV holding potential incubated for 5 mins by voltage-clamp assay relative to LvIA IC50. The class given is cell-based. The conditions noted are these: Oocyte.

The target of experiment [23] is Neuronal acetylcholine receptor; alpha3/beta4 (Rattus norvegicus, UniProt P04757+P12392). The experiment can be described thus: Antagonist activity at rat alpha3beta4 nAChR expressed in Xenopus laevis oocytes assessed as inhibition of Ach-induced response at -70 mV holding potential incubated for 5 mins by voltage-clamp assay. The class given is cell-based, Oocyte.
The species entered for the next experiment is Rattus norvegicus. In words: Selectivity index, ratio of IC50 for rat alpha3beta4 nAChR expressed in Xenopus laevis oocytes to IC50 for rat alpha3beta2 nAChR expressed in Xenopus laevis oocytes. The class given is cell-based.

The structures appear in SMILES notation. Where a SMILES comes first, the peptide text is derived from it. Bridges are numbered along the chain shown (N, C = ends). Some results are limits rather than exact numbers.

Neuronal acetylcholine receptor; alpha3/beta2, sequence (P04757 whole entry): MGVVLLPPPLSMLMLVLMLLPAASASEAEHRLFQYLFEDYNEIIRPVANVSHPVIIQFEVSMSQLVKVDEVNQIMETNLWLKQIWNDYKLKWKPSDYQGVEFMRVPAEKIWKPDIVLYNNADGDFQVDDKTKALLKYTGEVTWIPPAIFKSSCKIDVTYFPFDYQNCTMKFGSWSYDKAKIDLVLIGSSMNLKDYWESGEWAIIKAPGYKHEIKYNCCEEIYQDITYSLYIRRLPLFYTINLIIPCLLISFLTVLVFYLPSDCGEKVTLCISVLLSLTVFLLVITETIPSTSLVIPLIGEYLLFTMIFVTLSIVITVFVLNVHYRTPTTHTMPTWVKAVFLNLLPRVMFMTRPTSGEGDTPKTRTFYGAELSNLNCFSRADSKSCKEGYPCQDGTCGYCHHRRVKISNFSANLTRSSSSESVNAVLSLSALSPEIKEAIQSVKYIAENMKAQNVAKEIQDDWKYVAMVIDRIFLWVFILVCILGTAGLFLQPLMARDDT
Neuronal acetylcholine receptor; alpha3/beta2, sequence (P12390 whole entry): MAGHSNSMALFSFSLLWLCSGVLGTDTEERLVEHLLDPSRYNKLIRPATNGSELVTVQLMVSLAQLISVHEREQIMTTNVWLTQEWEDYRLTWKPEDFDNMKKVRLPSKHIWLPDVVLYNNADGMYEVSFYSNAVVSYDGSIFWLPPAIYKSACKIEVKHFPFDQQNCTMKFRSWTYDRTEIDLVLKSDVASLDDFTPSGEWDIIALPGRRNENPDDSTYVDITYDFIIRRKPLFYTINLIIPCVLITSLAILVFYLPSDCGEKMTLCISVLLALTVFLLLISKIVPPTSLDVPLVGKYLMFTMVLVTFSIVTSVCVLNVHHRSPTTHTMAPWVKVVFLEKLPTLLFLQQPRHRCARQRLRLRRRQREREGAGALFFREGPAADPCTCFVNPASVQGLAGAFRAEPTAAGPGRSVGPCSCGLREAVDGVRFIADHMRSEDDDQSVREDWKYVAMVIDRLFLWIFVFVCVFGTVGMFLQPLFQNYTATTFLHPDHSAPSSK
Neuronal acetylcholine receptor; alpha3/beta4, sequence (P04757 whole entry): as the sequence (P04757 whole entry) above
Neuronal acetylcholine receptor; alpha3/beta4, sequence (P12392 whole entry): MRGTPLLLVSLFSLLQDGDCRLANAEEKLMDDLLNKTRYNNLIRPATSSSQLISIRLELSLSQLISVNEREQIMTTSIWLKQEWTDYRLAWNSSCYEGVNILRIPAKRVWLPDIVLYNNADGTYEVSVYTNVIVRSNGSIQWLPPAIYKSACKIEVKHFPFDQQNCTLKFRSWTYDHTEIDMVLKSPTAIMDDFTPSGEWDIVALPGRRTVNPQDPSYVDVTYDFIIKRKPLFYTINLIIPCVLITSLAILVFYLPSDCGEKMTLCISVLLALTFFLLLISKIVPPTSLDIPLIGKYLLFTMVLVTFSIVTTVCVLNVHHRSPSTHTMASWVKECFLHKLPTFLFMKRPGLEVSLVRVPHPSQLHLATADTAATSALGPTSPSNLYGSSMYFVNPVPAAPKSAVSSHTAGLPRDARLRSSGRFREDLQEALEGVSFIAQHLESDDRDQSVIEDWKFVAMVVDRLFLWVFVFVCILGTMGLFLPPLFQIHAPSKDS

`CC[C@H](C)[C@@H]1NC(=O)[C@H](CCC(=O)O)NC(=O)[C@@H]2CCCN2C(=O)[C@H](Cc2cnc[nH]2)NC(=O)[C@H](CC(=O)O)NC(=O)[C@H](C(C)C)NC(=O)[C@H](CC(N)=O)NC(=O)[C@@H]2CSSC[C@H](NC(=O)CN)C(=O)N[C@@H](CSSC[C@@H](C(N)=O)NC1=O)C(=O)N[C@@H](CO)C(=O)N[C@@H](Cc1cnc[nH]1)C(=O)N1CCC[C@H]1C(=O)N[C@@H](C)C(=O)N2`: the inhibition (as a rule, the drop in the measured response relative to a control, in per cent) in the experiment on Oocyte [1] turned out to be 33.4%; in experiment [2] it was 28.8%; in the experiment with Oocyte [6], 55%; in the experiment with Oocyte [7], 94.6%; in experiment [13], 94.4%; with Oocyte [16], 91.9%. Moreover, the IC50 (commonly the concentration at which inhibition is half-maximal) in experiment [3] worked out at 0.7 nM; in [4], 1660 nM; in [5], 16.6 nM; in experiment [8], 54 nM; in [9], 31.8 nM; in [10] it was 2300 nM. The IC50 in experiment [11] stood at 29.6 nM; in experiment [12], 401 nM; in experiment [14], 31.3 nM; in experiment [15], 23.6 nM; in experiment [17], 4.1 nM.
Consider `CC[C@H](C)[C@@H]1NC(=O)[C@H](CCC(=O)O)NC(=O)[C@@H]2CCCN2C(=O)[C@H](Cc2cnc[nH]2)NC(=O)[C@H](CC(=O)O)NC(=O)[C@H](C(C)C)NC(=O)[C@H](C)NC(=O)[C@@H]2CSSC[C@H](NC(=O)CN)C(=O)N[C@@H](CSSC[C@@H](C(N)=O)NC1=O)C(=O)N[C@@H](CO)C(=O)N[C@@H](Cc1cnc[nH]1)C(=O)N1CCC[C@H]1C(=O)N[C@@H](C)C(=O)N2` (H-GCCSHPACAVDHPEIC-NH2; disulfide 2-8, 3-16), for which the IC50 was 2.1 nM in [18], 0.66 nM in experiment [3], 760 nM in [10] and 4270 nM in experiment [23]. The results for the TIME (in experiment [19]; in the experiment on Oocyte [20]) were 0.0167 h and more than 0.333 h, respectively. The Ratio IC50 in the experiment with Hi-5 was -0.48; in [21], 0.13; in experiment [22], 14.7; in the experiment listed under Rattus norvegicus it was 2030.
Take `CC[C@H](C)[C@@H]1NC(=O)[C@H](C)NC(=O)[C@@H]2CCCN2C(=O)[C@H](Cc2cnc[nH]2)NC(=O)[C@H](CC(=O)O)NC(=O)[C@H](C(C)C)NC(=O)[C@H](CC(N)=O)NC(=O)[C@@H]2CSSC[C@H](NC(=O)CN)C(=O)N[C@@H](CSSC[C@@H](C(N)=O)NC1=O)C(=O)N[C@@H](CO)C(=O)N[C@@H](Cc1cnc[nH]1)C(=O)N1CCC[C@H]1C(=O)N[C@@H](C)C(=O)N2` (H-GCCSHPACNVDHPAIC-NH2; disulfide 2-8, 3-16): the figures for the IC50 in [18], in experiment [10] and in [23] were 29 nM, 760 nM and 181 nM, respectively. Moreover, the Ratio IC50 in the experiment on Hi-5 is -0.48; in [21], 1.9; in experiment [22] it was 0.6; in the experiment filed under Rattus norvegicus it was 6.2.
`CC(C)[C@@H]1NC(=O)[C@H](CC(N)=O)NC(=O)[C@@H]2CSSC[C@H](NC(=O)CN)C(=O)N[C@@H](CSSC[C@@H](C(N)=O)NC(=O)[C@H](C)NC(=O)[C@H](CCC(=O)O)NC(=O)[C@@H]3CCCN3C(=O)[C@H](Cc3cnc[nH]3)NC(=O)[C@H](CC(=O)O)NC1=O)C(=O)N[C@@H](CO)C(=O)N[C@@H](Cc1cnc[nH]1)C(=O)N1CCC[C@H]1C(=O)N[C@@H](C)C(=O)N2` (H-GCCSHPACNVDHPEAC-NH2; disulfide 2-8, 3-16): the values for the IC50 in experiment [18], in [10] and in experiment [23] were 1080 nM, 24000 nM and 1400 nM, respectively. In addition, the Ratio IC50 stood at 1.02 in the experiment with Hi-5, 69 in [21], 4.8 in [22] and 1.3 in the experiment listed under Rattus norvegicus.
